Data taken from PubChem BioAssay (NCI).
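At the GI50, growth is halved. At the TGI there is no net growth.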

Legend:
Experiment in all cases: NCI tumour cell line growth inhibition, 384-well format
NCI-H460 NSCLC = test system: NCI-H460 NSCLC
NCI-H23 lung = test system: NCI-H23 lung
HT29 colon = test system: HT29 colon
SK-MEL-28 melanoma = test system: SK-MEL-28 melanoma
OVCAR-8 ovarian = test system: OVCAR-8 ovarian
T-47D breast = test system: T-47D breast
HCT-116 colon = test system: HCT-116 colon
MDA-MB-468 breast = test system: MDA-MB-468 breast
A498 renal = test system: A498 renal
RXF 393 renal = test system: RXF 393 renal
KM12 colon = test system: KM12 colon
SK-OV-3 ovarian = test system: SK-OV-3 ovarian
SF-539 CNS = test system: SF-539 CNS
SK-MEL-2 melanoma = test system: SK-MEL-2 melanoma
UACC-257 melanoma = test system: UACC-257 melanoma
MCF7 breast = test system: MCF7 breast
MDA-MB-435 melanoma = test system: MDA-MB-435 melanoma
COLO 205 colon = test system: COLO 205 colon
OVCAR-3 ovarian = test system: OVCAR-3 ovarian
SN12C renal = test system: SN12C renal
SF-295 CNS = test system: SF-295 CNS
HCC-2998 colon = test system: HCC-2998 colon
UO-31 renal = test system: UO-31 renal
SK-MEL-5 melanoma = test system: SK-MEL-5 melanoma
786-0 renal = test system: 786-0 renal
HL-60(TB) leukemia = test system: HL-60(TB) leukemia
SR leukemia = test system: SR leukemia
NCI/ADR-RES ovarian = test system: NCI/ADR-RES ovarian
SF-268 CNS = test system: SF-268 CNS
IGROV1 ovarian = test system: IGROV1 ovarian
UACC-62 melanoma = test system: UACC-62 melanoma
NCI-H522 lung = test system: NCI-H522 lung
OVCAR-4 ovarian = test system: OVCAR-4 ovarian
CAKI-1 renal = test system: CAKI-1 renal
NCI-H226 lung = test system: NCI-H226 lung
HCT-15 colon = test system: HCT-15 colon
LOX IMVI melanoma = test system: LOX IMVI melanoma
TK-10 renal = test system: TK-10 renal
HOP-62 NSCLC = test system: HOP-62 NSCLC
BT-549 breast = test system: BT-549 breast
A549 NSCLC = test system: A549 NSCLC
U251 glioblastoma = test system: U251 glioblastoma
M14 melanoma = test system: M14 melanoma
ACHN renal = test system: ACHN renal
K-562 leukemia = test system: K-562 leukemia
SW-620 colon = test system: SW-620 colon
MDA-MB-231 breast = test system: MDA-MB-231 breast
NCI-H322M lung = test system: NCI-H322M lung
PC-3 prostate = test system: PC-3 prostate
OVCAR-5 ovarian = test system: OVCAR-5 ovarian
DU-145 prostate = test system: DU-145 prostate
MALME-3M melanoma = test system: MALME-3M melanoma
RPMI-8226 leukemia = test system: RPMI-8226 leukemia
HOP-92 NSCLC = test system: HOP-92 NSCLC
CCRF-CEM leukemia = test system: CCRF-CEM leukemia
MOLT-4 leukemia = test system: MOLT-4 leukemia
SNB-19 CNS = test system: SNB-19 CNS

## COCCNCc1ccc(-c2cc3nccc(Oc4ccc(NC(=O)C5(C(=O)Nc6ccc(F)cc6)CC5)cc4F)c3s2)nc1
NCI-H460 NSCLC
  GI50: 1.45 µM
  TGI: 2.79 µM
NCI-H23 lung
  GI50: 0.414 µM
  TGI: 1.96 µM
HT29 colon
  GI50: 0.574 µM
  TGI: 1.84 µM
SK-MEL-28 melanoma
  GI50: 1.43 µM
  TGI: 2.75 µM
OVCAR-8 ovarian
  GI50: 1.57 µM
  TGI: 2.92 µM
T-47D breast
  GI50: 1.16 µM
  TGI: 2.39 µM
HCT-116 colon
  GI50: 1.1 µM
  TGI: 2.31 µM
MDA-MB-468 breast
  GI50: 1.94 µM
  TGI: 3.36 µM
A498 renal
  GI50: 1.41 µM
  TGI: 2.72 µM
RXF 393 renal
  GI50: 0.768 µM
  TGI: 2.05 µM
KM12 colon
  GI50: 0.0309 µM
  TGI: 1.08 µM
SK-OV-3 ovarian
  GI50: 1.18 µM
  TGI: 2.42 µM
SF-539 CNS
  GI50: 0.466 µM
  TGI: 1.91 µM
SK-MEL-2 melanoma
  GI50: 1.41 µM
  TGI: 2.71 µM
UACC-257 melanoma
  GI50: 0.186 µM
  TGI: 0.396 µM
MCF7 breast
  GI50: 1.15 µM
  TGI: 2.37 µM
MDA-MB-435 melanoma
  GI50: 1.37 µM
  TGI: 2.68 µM
COLO 205 colon
  GI50: 1.14 µM
  TGI: 2.37 µM
OVCAR-3 ovarian
  GI50: 1.59 µM
  TGI: 2.96 µM
SN12C renal
  GI50: 0.346 µM
  TGI: 1.67 µM
SF-295 CNS
  GI50: 0.396 µM
  TGI: 1.95 µM
HCC-2998 colon
  GI50: 1.48 µM
  TGI: 2.81 µM
UO-31 renal
  GI50: 1.38 µM
  TGI: 2.7 µM
SK-MEL-5 melanoma
  GI50: 1.13 µM
  TGI: 2.35 µM
786-0 renal
  GI50: 1.55 µM
  TGI: 2.89 µM
HL-60(TB) leukemia
  GI50: 1.48 µM
  TGI: 2.8 µM
SR leukemia
  GI50: 1.13 µM
  TGI: 2.34 µM
NCI/ADR-RES ovarian
  GI50: 1.56 µM
  TGI: 2.95 µM
SF-268 CNS
  GI50: 1.57 µM
  TGI: 2.93 µM
IGROV1 ovarian
  GI50: 1.36 µM
  TGI: 2.67 µM
UACC-62 melanoma
  GI50: 1.24 µM
  TGI: 2.51 µM
NCI-H522 lung
  GI50: 1.28 µM
  TGI: 2.54 µM
OVCAR-4 ovarian
  GI50: 1.36 µM
  TGI: 2.66 µM
CAKI-1 renal
  GI50: 1.25 µM
  TGI: 2.56 µM
NCI-H226 lung
  GI50: 1.58 µM
  TGI: 2.96 µM
HCT-15 colon
  GI50: 1.28 µM
  TGI: 2.55 µM
LOX IMVI melanoma
  GI50: 2.26 µM
  TGI: 3.73 µM
TK-10 renal
  GI50: 1.69 µM
  TGI: 3.11 µM
HOP-62 NSCLC
  GI50: 1.81 µM
  TGI: 3.21 µM
BT-549 breast
  GI50: 1.62 µM
  TGI: 2.98 µM
A549 NSCLC
  GI50: 1.28 µM
  TGI: 2.56 µM
U251 glioblastoma
  GI50: 1.45 µM
  TGI: 2.78 µM
M14 melanoma
  GI50: 1.37 µM
  TGI: 2.67 µM
ACHN renal
  GI50: 0.682 µM
  TGI: 1.96 µM
K-562 leukemia
  GI50: 0.101 µM
  TGI: 0.219 µM
SW-620 colon
  GI50: 1.26 µM
  TGI: 2.53 µM
MDA-MB-231 breast
  GI50: 1.32 µM
  TGI: 2.6 µM
NCI-H322M lung
  GI50: 1.4 µM
  TGI: 2.72 µM
PC-3 prostate
  GI50: 1.69 µM
  TGI: 3.09 µM
OVCAR-5 ovarian
  GI50: 1.63 µM
  TGI: 3.1 µM
DU-145 prostate
  GI50: 1.75 µM
  TGI: 3.14 µM
MALME-3M melanoma
  GI50: 1.03 µM
  TGI: 2.2 µM
RPMI-8226 leukemia
  GI50: 0.499 µM
  TGI: 1.56 µM
HOP-92 NSCLC
  GI50: 0.166 µM
  TGI: 1.05 µM
CCRF-CEM leukemia
  GI50: 1.42 µM
  TGI: 2.73 µM
MOLT-4 leukemia
  GI50: 0.477 µM
  TGI: 1.63 µM
SNB-19 CNS
  GI50: 1.9 µM
  TGI: 3.33 µM
